Laboratory results taken from ChEMBL document CHEMBL1201862, “PubChem BioAssay data set” (2004).
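The compound was tested at five concentrations on cells cultured in 96-well plates, with a 48-hour exposure period. The concentration for 50% growth inhibition is given as GI50.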 Active and inactive are the calls of the source. Rule as the data show it: active = GI50 up to about 1.1 µM and inactive = higher.

Tests used:
Test in all cases: inhibition of tumour cell growth, NCI panel, 48 h
OVCAR-5 = system: OVCAR-5
UACC-257 = system: UACC-257
SNB-75 = system: SNB-75
SN12C = system: SN12C
HCT-15 = system: HCT-15
SF-295 = system: SF-295
SK-OV-3 = system: SK-OV-3
HT-29 = system: HT-29
UACC-62 = system: UACC-62
HCC 2998 = system: HCC 2998
NCI-H522 = system: NCI-H522
M14 = system: M14
NCI-H460 = system: NCI-H460
SK-MEL-2 = system: SK-MEL-2
U-251 = system: U-251
RPMI-8226 = system: RPMI-8226
ACHN = system: ACHN
TK-10 = system: TK-10
RXF 631 = system: RXF 631
LXFL 529 = system: LXFL 529
MOLT-4 = system: MOLT-4
SK-MEL-28 = system: SK-MEL-28
OVCAR-4 = system: OVCAR-4
COLO 205 = system: COLO 205
HOP-92 = system: HOP-92
HOP-18 = system: HOP-18
RXF 393 = system: RXF 393
K562 = system: K562
Malme-3M = system: Malme-3M
DMS-114 = system: DMS-114
CAKI-1 = system: CAKI-1
SF-539 = system: SF-539
KM-20L2 = system: KM-20L2
OVCAR-3 = system: OVCAR-3
NCI-H23 = system: NCI-H23
M19-MEL = system: M19-MEL
OVCAR-8 = system: OVCAR-8
786-0 = system: 786-0
SNB-78 = system: SNB-78
A498 = system: A498
LOX IMVI = system: LOX IMVI
HCT-116 = system: HCT-116
IGROV-1 = system: IGROV-1
SW-620 = system: SW-620
A549 = system: A549
UO-31 = system: UO-31
DMS-273 = system: DMS-273
HOP-62 = system: HOP-62
DLD-1 = system: DLD-1
KM12 = system: KM12
SK-MEL-5 = system: SK-MEL-5
EKVX = system: EKVX
SNB-19 = system: SNB-19
HL-60 = system: HL-60
NCI-H226 = system: NCI-H226
SR = system: SR
XF498 = system: XF498
SF-268 = system: SF-268
CCRF-CEM = system: CCRF-CEM

**Q.** Which GI50 (OVCAR-5) does the source give for `CCNC(=O)O/N=C1\CCC2[C@@H]3CC=C4C[C@@H](OC5CCCCO5)CC[C@]4(C)C3CC[C@]12C` (some centres undefined) here?
**A.** 2.48 µM (inactive)

**Q.** And the GI50 (UACC-257)?
**A.** 1.61 µM (inactive)

**Q.** What about the GI50 (SNB-75) of the same molecule?
**A.** 1.91 µM (inactive)

**Q.** What about the GI50 (SN12C) of the same molecule?
**A.** 2.12 µM (inactive)

**Q.** And the GI50 (HCT-15)?
**A.** 1.63 µM

**Q.** And the GI50 (SF-295)?
**A.** 2.17 µM (inactive)

**Q.** What about the GI50 (SK-OV-3) of the same molecule?
**A.** 5.31 µM (inactive)

**Q.** What about the GI50 (HT-29) of the same molecule?
**A.** 3.16 µM (inactive)

**Q.** And the GI50 (UACC-62)?
**A.** 0.733 µM (active)

**Q.** What about the GI50 (HCC 2998) of the same molecule?
**A.** 2.89 µM (inactive)

**Q.** And the GI50 (NCI-H522)?
**A.** 1.51 µM (inactive)

**Q.** And the GI50 (M14)?
**A.** 1.71 µM (inactive)

**Q.** And the GI50 (NCI-H460)?
**A.** 1.93 µM (inactive)

**Q.** What about the GI50 (SK-MEL-2) of the same molecule?
**A.** 2.2 µM (inactive)

**Q.** What about the GI50 (U-251) of the same molecule?
**A.** 1.89 µM (inactive)

**Q.** And the GI50 (RPMI-8226)?
**A.** 1.58 µM (inactive)

**Q.** And the GI50 (ACHN)?
**A.** 1.45 µM (inactive)

**Q.** And the GI50 (TK-10)?
**A.** 2 µM (inactive)

**Q.** What about the GI50 (RXF 631) of the same molecule?
**A.** 2.75 µM (inactive)

**Q.** And the GI50 (LXFL 529)?
**A.** 1.2 µM (inactive)

**Q.** And the GI50 (MOLT-4)?
**A.** 1.61 µM (inactive)

**Q.** And the GI50 (SK-MEL-28)?
**A.** 3.19 µM (inactive)

**Q.** And the GI50 (OVCAR-4)?
**A.** 1.47 µM (inactive)

**Q.** And the GI50 (COLO 205)?
**A.** 0.964 µM (active)

**Q.** What about the GI50 (HOP-92) of the same molecule?
**A.** 2.48 µM (inactive)

**Q.** And the GI50 (HOP-18)?
**A.** 1.42 µM (inactive)

**Q.** And the GI50 (RXF 393)?
**A.** 2.2 µM (inactive)

**Q.** What about the GI50 (K562) of the same molecule?
**A.** 1.37 µM (inactive)

**Q.** And the GI50 (Malme-3M)?
**A.** 1.02 µM (active)

**Q.** What about the GI50 (DMS-114) of the same molecule?
**A.** 1.26 µM (inactive)

**Q.** What about the GI50 (CAKI-1) of the same molecule?
**A.** 2.5 µM (inactive)

**Q.** And the GI50 (SF-539)?
**A.** 6.19 µM (inactive)

**Q.** What about the GI50 (KM-20L2) of the same molecule?
**A.** 2.64 µM (inactive)

**Q.** And the GI50 (OVCAR-3)?
**A.** 2.59 µM (inactive)

**Q.** And the GI50 (NCI-H23)?
**A.** 2.72 µM (inactive)

**Q.** What about the GI50 (M19-MEL) of the same molecule?
**A.** 1.76 µM (inactive)

**Q.** What about the GI50 (OVCAR-8) of the same molecule?
**A.** 3.9 µM (inactive)

**Q.** And the GI50 (786-0)?
**A.** 2.31 µM (inactive)

**Q.** What about the GI50 (SNB-78) of the same molecule?
**A.** 2.24 µM (inactive)

**Q.** What about the GI50 (A498) of the same molecule?
**A.** 34 µM (inactive)

**Q.** And the GI50 (LOX IMVI)?
**A.** 1.58 µM (inactive)

**Q.** What about the GI50 (HCT-116) of the same molecule?
**A.** 4.8 µM (inactive)

**Q.** And the GI50 (IGROV-1)?
**A.** 3.16 µM (inactive)

**Q.** What about the GI50 (SW-620) of the same molecule?
**A.** 2.45 µM (inactive)

**Q.** What about the GI50 (A549) of the same molecule?
**A.** 2.74 µM (inactive)

**Q.** And the GI50 (UO-31)?
**A.** 1.44 µM (inactive)

**Q.** And the GI50 (DMS-273)?
**A.** 1.52 µM (inactive)

**Q.** And the GI50 (HOP-62)?
**A.** 22.3 µM (inactive)

**Q.** And the GI50 (DLD-1)?
**A.** 4.45 µM (inactive)

**Q.** And the GI50 (KM12)?
**A.** 3.94 µM (inactive)

**Q.** And the GI50 (SK-MEL-5)?
**A.** 2.28 µM (inactive)

**Q.** And the GI50 (EKVX)?
**A.** 2.51 µM (inactive)

**Q.** And the GI50 (SNB-19)?
**A.** 0.723 µM (active)

**Q.** How did the GI50 (OVCAR-5) turn out when `Fc1ccc(C2SCc3nc4ccccc4n32)cc1Cl` (centres undefined) was run?
**A.** 15.4 µM (inactive)

**Q.** What about the GI50 (UACC-257) of the same molecule?
**A.** 22.8 µM (inactive)

**Q.** And the GI50 (SN12C)?
**A.** 16.3 µM (inactive)

**Q.** What about the GI50 (SF-295) of the same molecule?
**A.** 26.5 µM (inactive)

**Q.** And the GI50 (HL-60)?
**A.** 13.1 µM (inactive)

**Q.** What about the GI50 (SK-OV-3) of the same molecule?
**A.** 17.5 µM (inactive)

**Q.** What about the GI50 (HT-29) of the same molecule?
**A.** 37.1 µM (inactive)

**Q.** And the GI50 (NCI-H226)?
**A.** 23.2 µM (inactive)

**Q.** What about the GI50 (UACC-62) of the same molecule?
**A.** 10.1 µM (inactive)

**Q.** What about the GI50 (HCC 2998) of the same molecule?
**A.** 16.3 µM (inactive)

**Q.** And the GI50 (NCI-H522)?
**A.** 13.7 µM (inactive)

**Q.** And the GI50 (NCI-H460)?
**A.** 29.2 µM (inactive)

**Q.** And the GI50 (SR)?
**A.** 27.2 µM (inactive)

**Q.** And the GI50 (SK-MEL-2)?
**A.** > 10 µM (inactive)

**Q.** And the GI50 (XF498)?
**A.** 14 µM (inactive)

**Q.** What about the GI50 (U-251) of the same molecule?
**A.** 19.4 µM (inactive)

**Q.** And the GI50 (ACHN)?
**A.** 25.5 µM (inactive)

**Q.** And the GI50 (TK-10)?
**A.** 27.8 µM (inactive)

**Q.** What about the GI50 (RXF 631) of the same molecule?
**A.** 32.9 µM (inactive)

**Q.** And the GI50 (LXFL 529)?
**A.** 18.6 µM (inactive)

**Q.** What about the GI50 (SF-268) of the same molecule?
**A.** 33.6 µM (inactive)

**Q.** And the GI50 (MOLT-4)?
**A.** 23.2 µM (inactive)

**Q.** What about the GI50 (SK-MEL-28) of the same molecule?
**A.** 24.7 µM (inactive)

**Q.** And the GI50 (OVCAR-4)?
**A.** 20 µM (inactive)

**Q.** What about the GI50 (COLO 205) of the same molecule?
**A.** 15.3 µM (inactive)

**Q.** What about the GI50 (HOP-92) of the same molecule?
**A.** 12 µM (inactive)

**Q.** What about the GI50 (RXF 393) of the same molecule?
**A.** 19.4 µM (inactive)

**Q.** And the GI50 (K562)?
**A.** 16.5 µM (inactive)

**Q.** And the GI50 (Malme-3M)?
**A.** 7.8 µM (inactive)

**Q.** What about the GI50 (DMS-114) of the same molecule?
**A.** 19.9 µM (inactive)

**Q.** And the GI50 (CAKI-1)?
**A.** 13 µM (inactive)

**Q.** And the GI50 (SF-539)?
**A.** 18.7 µM (inactive)

**Q.** And the GI50 (KM-20L2)?
**A.** 29.9 µM (inactive)

**Q.** What about the GI50 (NCI-H23) of the same molecule?
**A.** 22.5 µM (inactive)

**Q.** What about the GI50 (M19-MEL) of the same molecule?
**A.** 19.8 µM (inactive)

**Q.** And the GI50 (OVCAR-8)?
**A.** 21.3 µM (inactive)

**Q.** What about the GI50 (786-0) of the same molecule?
**A.** 27.7 µM (inactive)

**Q.** And the GI50 (SNB-78)?
**A.** 48.8 µM (inactive)

**Q.** And the GI50 (A498)?
**A.** 33.7 µM (inactive)

**Q.** And the GI50 (LOX IMVI)?
**A.** 17.9 µM (inactive)

**Q.** And the GI50 (IGROV-1)?
**A.** > 10 µM (inactive)

**Q.** And the GI50 (SW-620)?
**A.** 36.1 µM (inactive)

**Q.** What about the GI50 (A549) of the same molecule?
**A.** 25.8 µM (inactive)

**Q.** What about the GI50 (UO-31) of the same molecule?
**A.** 16.7 µM (inactive)

**Q.** What about the GI50 (DMS-273) of the same molecule?
**A.** > 10 µM (inactive)

**Q.** What about the GI50 (HOP-62) of the same molecule?
**A.** 15.5 µM (inactive)

**Q.** What about the GI50 (DLD-1) of the same molecule?
**A.** 23 µM (inactive)

**Q.** What about the GI50 (KM12) of the same molecule?
**A.** 16.1 µM (inactive)

**Q.** And the GI50 (CCRF-CEM)?
**A.** 25.6 µM (inactive)

**Q.** What about the GI50 (EKVX) of the same molecule?
**A.** 24.3 µM (inactive)

**Q.** What about the GI50 (SNB-19) of the same molecule?
**A.** 34.4 µM (inactive)
